Legend:
[1] = biological target: T1, Alpha-2C adrenergic receptor (Homo sapiens, UniProt P18825); type: functional
T1 sequence (P18825 whole entry): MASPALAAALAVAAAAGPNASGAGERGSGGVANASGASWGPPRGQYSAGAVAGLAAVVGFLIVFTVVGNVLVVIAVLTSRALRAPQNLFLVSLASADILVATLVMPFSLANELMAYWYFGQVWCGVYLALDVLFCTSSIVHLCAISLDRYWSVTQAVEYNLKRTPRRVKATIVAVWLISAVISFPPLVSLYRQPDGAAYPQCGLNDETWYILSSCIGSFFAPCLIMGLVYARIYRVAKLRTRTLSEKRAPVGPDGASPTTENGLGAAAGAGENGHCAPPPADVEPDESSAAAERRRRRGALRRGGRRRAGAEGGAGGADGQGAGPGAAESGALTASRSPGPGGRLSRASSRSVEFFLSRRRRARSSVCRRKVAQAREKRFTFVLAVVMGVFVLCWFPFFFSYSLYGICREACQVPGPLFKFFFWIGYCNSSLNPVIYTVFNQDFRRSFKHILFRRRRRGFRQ

[2] = biological target: Vasopressin V2 receptor (Homo sapiens, UniProt P30518)
Sequence of Vasopressin V2 receptor (P30518 whole entry): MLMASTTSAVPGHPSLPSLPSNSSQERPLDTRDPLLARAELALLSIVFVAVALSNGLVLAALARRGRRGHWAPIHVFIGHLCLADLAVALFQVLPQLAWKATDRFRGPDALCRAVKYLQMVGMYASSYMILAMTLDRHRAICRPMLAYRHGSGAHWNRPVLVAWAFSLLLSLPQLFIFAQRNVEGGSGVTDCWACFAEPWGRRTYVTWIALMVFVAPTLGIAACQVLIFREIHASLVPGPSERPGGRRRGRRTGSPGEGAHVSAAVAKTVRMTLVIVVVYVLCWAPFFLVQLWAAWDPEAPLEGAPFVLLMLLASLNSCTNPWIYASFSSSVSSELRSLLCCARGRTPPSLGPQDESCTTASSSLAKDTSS

[3] = biological target: Voltage-dependent L-type calcium channel subunit alpha-1C (Rattus norvegicus, UniProt P22002); type: functional
Sequence of Voltage-dependent L-type calcium channel subunit alpha-1C (P22002 whole entry): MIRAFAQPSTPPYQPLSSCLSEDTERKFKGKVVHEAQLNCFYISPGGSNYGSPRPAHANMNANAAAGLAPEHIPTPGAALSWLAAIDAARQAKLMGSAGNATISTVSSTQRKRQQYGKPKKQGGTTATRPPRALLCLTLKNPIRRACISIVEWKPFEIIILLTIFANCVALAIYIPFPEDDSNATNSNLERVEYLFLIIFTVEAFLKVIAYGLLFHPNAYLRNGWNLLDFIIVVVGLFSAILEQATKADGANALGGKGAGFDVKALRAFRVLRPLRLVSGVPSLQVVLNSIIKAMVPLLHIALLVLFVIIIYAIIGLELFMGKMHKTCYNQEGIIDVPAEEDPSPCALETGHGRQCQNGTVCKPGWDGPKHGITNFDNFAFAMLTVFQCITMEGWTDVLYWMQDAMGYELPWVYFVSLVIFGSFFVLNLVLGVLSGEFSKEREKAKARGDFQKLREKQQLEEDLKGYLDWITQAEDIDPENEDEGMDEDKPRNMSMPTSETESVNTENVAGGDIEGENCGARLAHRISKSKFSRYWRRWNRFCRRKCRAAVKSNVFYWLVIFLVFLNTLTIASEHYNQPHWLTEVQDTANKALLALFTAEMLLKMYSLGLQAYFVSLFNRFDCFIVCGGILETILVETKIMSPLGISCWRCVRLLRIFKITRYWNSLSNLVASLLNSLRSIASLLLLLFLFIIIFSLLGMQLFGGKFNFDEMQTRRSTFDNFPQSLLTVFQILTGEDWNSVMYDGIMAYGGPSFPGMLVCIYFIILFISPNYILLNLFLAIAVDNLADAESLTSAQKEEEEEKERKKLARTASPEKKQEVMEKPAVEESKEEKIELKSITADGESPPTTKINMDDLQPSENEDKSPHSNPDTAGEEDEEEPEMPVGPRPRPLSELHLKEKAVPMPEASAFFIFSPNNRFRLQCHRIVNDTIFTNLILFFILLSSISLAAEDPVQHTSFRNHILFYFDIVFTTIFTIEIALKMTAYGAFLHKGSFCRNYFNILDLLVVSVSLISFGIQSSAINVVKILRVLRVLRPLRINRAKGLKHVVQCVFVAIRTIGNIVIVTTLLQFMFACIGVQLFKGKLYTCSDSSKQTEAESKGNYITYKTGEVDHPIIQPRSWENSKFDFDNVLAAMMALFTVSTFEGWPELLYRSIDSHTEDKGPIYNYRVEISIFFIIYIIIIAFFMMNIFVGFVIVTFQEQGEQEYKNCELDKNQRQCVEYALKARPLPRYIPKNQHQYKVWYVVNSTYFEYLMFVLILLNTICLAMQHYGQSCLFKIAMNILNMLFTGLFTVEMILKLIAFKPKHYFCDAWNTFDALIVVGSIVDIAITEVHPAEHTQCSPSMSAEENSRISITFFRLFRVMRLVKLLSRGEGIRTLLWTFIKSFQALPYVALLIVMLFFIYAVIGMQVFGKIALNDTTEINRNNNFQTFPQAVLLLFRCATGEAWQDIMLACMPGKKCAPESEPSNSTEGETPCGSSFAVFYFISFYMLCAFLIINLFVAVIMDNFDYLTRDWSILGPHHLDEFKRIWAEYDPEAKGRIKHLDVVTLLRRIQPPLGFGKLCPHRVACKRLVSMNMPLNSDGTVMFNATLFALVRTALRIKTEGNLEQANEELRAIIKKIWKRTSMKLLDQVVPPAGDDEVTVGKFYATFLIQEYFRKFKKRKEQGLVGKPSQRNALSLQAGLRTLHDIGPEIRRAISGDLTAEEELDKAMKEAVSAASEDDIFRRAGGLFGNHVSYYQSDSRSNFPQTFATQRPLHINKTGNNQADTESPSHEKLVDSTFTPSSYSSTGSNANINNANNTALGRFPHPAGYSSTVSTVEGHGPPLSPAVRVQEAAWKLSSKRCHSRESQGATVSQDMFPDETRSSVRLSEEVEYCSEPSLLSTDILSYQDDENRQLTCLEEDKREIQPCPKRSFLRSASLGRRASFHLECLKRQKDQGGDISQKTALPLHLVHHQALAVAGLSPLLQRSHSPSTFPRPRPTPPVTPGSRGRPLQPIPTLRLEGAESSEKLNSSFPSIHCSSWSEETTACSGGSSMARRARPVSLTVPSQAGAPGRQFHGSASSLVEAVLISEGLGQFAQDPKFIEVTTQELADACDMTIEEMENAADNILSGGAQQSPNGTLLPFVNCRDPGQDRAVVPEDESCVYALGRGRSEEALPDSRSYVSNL

[4] = biological target: T2, Gastrin/cholecystokinin type B receptor (Homo sapiens, UniProt P32239)
T2 sequence (P32239 whole entry): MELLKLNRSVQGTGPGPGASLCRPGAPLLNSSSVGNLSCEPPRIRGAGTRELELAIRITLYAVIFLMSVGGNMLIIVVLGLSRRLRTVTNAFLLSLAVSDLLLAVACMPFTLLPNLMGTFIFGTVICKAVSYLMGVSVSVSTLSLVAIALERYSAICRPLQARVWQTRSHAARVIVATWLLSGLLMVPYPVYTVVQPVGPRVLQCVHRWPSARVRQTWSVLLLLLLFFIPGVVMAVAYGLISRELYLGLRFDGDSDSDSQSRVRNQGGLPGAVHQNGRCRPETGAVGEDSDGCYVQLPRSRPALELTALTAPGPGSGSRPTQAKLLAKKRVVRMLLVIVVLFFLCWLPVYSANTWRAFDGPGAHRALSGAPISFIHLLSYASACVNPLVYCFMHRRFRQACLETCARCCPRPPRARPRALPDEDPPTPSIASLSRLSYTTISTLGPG

[5] = biological target: Cannabinoid receptor 1 (Homo sapiens, UniProt P21554); type: functional, cell-based
Sequence of Cannabinoid receptor 1 (P21554 whole entry): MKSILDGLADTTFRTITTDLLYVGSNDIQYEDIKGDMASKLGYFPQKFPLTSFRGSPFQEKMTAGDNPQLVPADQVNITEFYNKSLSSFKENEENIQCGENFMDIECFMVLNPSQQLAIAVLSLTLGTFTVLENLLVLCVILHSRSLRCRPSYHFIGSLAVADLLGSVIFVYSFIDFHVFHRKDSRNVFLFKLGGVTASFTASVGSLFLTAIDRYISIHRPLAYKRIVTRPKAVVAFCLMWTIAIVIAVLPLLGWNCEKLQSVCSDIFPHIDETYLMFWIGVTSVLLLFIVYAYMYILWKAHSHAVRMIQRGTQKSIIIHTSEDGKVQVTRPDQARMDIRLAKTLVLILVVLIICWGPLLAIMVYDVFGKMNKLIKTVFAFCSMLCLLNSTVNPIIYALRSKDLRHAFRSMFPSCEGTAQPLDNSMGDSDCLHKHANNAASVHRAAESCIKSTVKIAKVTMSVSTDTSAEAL

[6] = biological target: D(1A) dopamine receptor (Homo sapiens, UniProt P21728); type: functional, cell-based
Sequence of D(1A) dopamine receptor (P21728 whole entry): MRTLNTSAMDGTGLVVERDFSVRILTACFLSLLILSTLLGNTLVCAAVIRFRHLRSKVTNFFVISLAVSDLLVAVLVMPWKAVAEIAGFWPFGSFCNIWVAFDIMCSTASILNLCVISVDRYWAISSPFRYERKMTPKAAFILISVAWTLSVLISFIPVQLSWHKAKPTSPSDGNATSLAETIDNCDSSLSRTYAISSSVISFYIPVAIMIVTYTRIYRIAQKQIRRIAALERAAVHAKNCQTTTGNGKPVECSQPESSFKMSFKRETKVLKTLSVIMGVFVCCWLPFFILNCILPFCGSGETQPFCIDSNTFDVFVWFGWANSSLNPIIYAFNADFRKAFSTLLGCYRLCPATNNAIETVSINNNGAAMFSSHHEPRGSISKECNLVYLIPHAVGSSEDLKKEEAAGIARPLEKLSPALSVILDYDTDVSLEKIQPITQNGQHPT

[7] = biological target: Gamma-aminobutyric acid receptor subunit alpha-1 (Rattus norvegicus, UniProt P62813); type: functional
Sequence of Gamma-aminobutyric acid receptor subunit alpha-1 (P62813 whole entry): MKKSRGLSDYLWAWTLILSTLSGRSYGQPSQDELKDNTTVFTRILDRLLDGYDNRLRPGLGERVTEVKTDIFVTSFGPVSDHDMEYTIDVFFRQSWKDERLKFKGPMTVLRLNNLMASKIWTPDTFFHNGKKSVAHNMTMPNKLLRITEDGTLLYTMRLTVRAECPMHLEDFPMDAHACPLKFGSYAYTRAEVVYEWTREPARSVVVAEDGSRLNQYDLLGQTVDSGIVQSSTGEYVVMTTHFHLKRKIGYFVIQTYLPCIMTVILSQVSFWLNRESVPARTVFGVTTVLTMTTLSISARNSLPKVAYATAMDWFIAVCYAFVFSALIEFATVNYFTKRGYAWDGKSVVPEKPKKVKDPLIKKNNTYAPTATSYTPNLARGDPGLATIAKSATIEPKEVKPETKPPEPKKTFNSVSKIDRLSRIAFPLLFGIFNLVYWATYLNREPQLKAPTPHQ

[8] = biological target: Histamine H2 receptor (Homo sapiens, UniProt P25021); type: functional, cell-based
Sequence of Histamine H2 receptor (P25021 whole entry): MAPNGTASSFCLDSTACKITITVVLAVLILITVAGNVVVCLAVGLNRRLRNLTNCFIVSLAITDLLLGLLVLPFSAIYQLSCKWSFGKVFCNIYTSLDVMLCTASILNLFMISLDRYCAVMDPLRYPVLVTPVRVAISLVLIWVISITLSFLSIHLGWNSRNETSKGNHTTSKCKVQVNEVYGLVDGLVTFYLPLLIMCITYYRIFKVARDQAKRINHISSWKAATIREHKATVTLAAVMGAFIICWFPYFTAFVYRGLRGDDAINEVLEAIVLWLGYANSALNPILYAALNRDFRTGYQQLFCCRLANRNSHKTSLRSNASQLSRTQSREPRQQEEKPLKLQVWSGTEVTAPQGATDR

[9] = biological target: T3, 5-hydroxytryptamine receptor 2C (Homo sapiens, UniProt P28335)
T3 sequence (P28335 whole entry): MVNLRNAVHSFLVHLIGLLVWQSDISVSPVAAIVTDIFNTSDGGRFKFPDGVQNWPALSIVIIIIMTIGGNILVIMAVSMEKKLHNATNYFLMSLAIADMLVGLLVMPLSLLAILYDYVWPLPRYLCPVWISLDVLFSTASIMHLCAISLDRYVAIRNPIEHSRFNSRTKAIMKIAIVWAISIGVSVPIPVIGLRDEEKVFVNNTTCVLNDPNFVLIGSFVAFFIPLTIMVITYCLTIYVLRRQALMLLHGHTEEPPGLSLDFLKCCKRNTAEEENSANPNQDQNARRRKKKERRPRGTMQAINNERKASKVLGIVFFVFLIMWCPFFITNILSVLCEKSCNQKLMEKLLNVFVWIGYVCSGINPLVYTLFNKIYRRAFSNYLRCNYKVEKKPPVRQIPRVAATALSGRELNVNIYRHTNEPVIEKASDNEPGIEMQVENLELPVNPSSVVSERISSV

[10] = biological target: Voltage-gated inwardly rectifying potassium channel KCNH2 (Homo sapiens, UniProt Q12809); type: functional; settings: read-out: AC50
[11] = biological target: T4, Equilibrative nucleoside transporter 1 (Homo sapiens, UniProt Q99808)
T4 sequence (Q99808 whole entry): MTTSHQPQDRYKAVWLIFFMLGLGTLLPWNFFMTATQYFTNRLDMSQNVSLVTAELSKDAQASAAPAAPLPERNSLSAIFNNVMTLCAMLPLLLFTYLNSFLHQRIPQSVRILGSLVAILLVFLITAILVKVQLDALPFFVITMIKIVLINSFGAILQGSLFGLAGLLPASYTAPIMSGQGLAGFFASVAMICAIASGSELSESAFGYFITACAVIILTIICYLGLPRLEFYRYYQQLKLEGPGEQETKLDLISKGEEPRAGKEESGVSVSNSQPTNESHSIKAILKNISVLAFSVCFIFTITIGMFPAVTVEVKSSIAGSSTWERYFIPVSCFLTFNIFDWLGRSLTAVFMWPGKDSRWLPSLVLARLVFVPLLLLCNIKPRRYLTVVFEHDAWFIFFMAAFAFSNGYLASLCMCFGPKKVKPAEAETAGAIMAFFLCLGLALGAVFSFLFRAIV

[12] = biological target: Sodium-dependent dopamine transporter (Homo sapiens, UniProt Q01959)
Sequence of Sodium-dependent dopamine transporter (Q01959 whole entry): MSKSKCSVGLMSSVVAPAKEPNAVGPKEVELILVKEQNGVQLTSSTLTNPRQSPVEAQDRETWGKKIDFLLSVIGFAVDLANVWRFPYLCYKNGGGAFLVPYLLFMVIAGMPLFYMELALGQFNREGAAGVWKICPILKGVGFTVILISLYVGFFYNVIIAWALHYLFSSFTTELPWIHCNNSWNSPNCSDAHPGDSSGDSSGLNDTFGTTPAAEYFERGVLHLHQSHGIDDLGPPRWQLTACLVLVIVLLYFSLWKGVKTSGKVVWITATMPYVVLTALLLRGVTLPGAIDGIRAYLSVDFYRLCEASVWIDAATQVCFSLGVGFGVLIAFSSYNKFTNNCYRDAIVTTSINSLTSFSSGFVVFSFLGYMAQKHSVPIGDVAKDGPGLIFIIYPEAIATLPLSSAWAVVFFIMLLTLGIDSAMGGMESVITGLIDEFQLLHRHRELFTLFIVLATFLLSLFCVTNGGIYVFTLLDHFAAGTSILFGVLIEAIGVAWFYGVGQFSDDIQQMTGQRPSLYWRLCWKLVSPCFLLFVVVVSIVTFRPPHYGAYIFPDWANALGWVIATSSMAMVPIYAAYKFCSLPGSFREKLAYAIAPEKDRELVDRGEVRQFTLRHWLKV

[13] = biological target: T5, Alpha-1A adrenergic receptor (Homo sapiens, UniProt P35348); type: functional, cell-based
T5 sequence (P35348 whole entry): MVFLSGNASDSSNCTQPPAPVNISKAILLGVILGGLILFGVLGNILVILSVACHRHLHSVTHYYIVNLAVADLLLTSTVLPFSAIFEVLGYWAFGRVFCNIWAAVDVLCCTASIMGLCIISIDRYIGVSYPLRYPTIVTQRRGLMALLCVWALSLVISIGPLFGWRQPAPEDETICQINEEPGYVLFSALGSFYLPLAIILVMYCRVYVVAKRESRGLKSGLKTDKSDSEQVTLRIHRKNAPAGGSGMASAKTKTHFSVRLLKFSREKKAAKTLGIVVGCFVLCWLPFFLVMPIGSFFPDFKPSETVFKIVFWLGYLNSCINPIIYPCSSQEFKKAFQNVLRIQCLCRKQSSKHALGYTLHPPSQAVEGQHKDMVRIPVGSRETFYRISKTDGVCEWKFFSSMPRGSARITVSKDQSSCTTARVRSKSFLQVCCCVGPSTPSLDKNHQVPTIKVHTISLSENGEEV
Also: assay procedure not described here.

| Compound | AC50 [1] | AC50 [2] | AC50 [3] | AC50 [4] | AC50 [5] | AC50 [6] | AC50 [7] | AC50 [8] | AC50 [9] | AC50 [10] | AC50 [11] | AC50 [12] | AC50 [13] |
| --- | --- | --- | --- | --- | --- | --- | --- | --- | --- | --- | --- | --- | --- |
| CCOC(=O)NNc1ccc(N(CC)CC(C)O)nn1 (configuration not stated) [CADRALAZINE] | > 30 µM | > 30 µM | > 30 µM | > 30 µM | > 30 µM | > 30 µM | > 30 µM | > 30 µM | > 30 µM | > 30 µM | > 30 µM | > 30 µM | > 30 µM |
| CCCC(C)(COC(N)=O)COC(=O)NC(C)C (configuration not stated) [CARISOPRODOL] | > 10 µM | > 30 µM | > 10 µM | > 30 µM | > 30 µM | > 10 µM | > 10 µM | > 10 µM | > 30 µM | > 30 µM | > 30 µM | > 10 µM | > 30 µM |
| CC(C)(C)NCC(O)c1cc(Cl)c(N)c(Cl)c1 (configuration not stated) [CLENBUTEROL] | > 30 µM | > 30 µM | > 30 µM | > 30 µM | > 30 µM | > 30 µM | > 30 µM | > 30 µM | > 30 µM | > 30 µM | > 30 µM | 27.1 µM | > 30 µM |
| CCC(C)(Oc1ccc(C2(c3ccc(OC(C)(CC)C(=O)O)cc3)CCCCC2)cc1)C(=O)O (configuration not stated) [CLINOFIBRATE] | > 30 µM | > 30 µM | > 30 µM | > 30 µM | > 30 µM | > 30 µM | > 30 µM | > 30 µM | > 30 µM | > 30 µM | > 30 µM | > 30 µM | > 30 µM |
| N[C@H](Cc1cc(I)c(Oc2cc(I)c(O)c(I)c2)c(I)c1)C(=O)O [DEXTROTHYROXINE] | > 10 µM | > 30 µM | > 10 µM | > 30 µM | > 30 µM | > 10 µM | > 10 µM | > 10 µM | > 30 µM | > 30 µM | > 30 µM | > 30 µM | > 30 µM |
| CCCCC[C@H](O)/C=C/[C@H]1[C@H](O)CC(=O)[C@@H]1C/C=C\CCCC(=O)O [DINOPROSTONE] | > 30 µM | > 30 µM | > 30 µM | > 30 µM | > 30 µM | > 30 µM | > 30 µM | > 30 µM | > 30 µM | > 30 µM | > 30 µM | > 30 µM | > 30 µM |
| CC(C)c1cc2c(cc1S(=O)(=O)O)[C@@]1(C)CCC[C@@](C)(C(=O)O)[C@@H]1CC2 [ECABET] | > 30 µM | > 30 µM | > 30 µM | > 30 µM | > 30 µM | > 30 µM | > 30 µM | > 30 µM | > 30 µM | > 30 µM | > 30 µM | > 30 µM | > 30 µM |
| Clc1ccc2c(c1)C(c1ccccc1)=NCc1nncn1-2 [ESTAZOLAM] | > 10 µM | > 30 µM | > 10 µM | > 30 µM | > 30 µM | > 10 µM | 0.0336 µM | > 10 µM | > 30 µM | > 30 µM | > 30 µM | > 30 µM | > 30 µM |
| CCCN(CC)C(CC)C(=O)Nc1c(C)cccc1C (configuration not stated) [ETIDOCAINE] | > 30 µM | > 30 µM | > 30 µM | > 30 µM | > 30 µM | > 30 µM | > 30 µM | > 30 µM | > 30 µM | > 30 µM | > 30 µM | > 30 µM | > 30 µM |
| CC(=O)OCC(CCn1cnc2cnc(N)nc21)COC(C)=O [FAMCICLOVIR] | > 10 µM | > 30 µM | > 10 µM | > 30 µM | > 30 µM | > 10 µM | > 10 µM | > 10 µM | > 30 µM | > 30 µM | > 30 µM | > 10 µM | > 30 µM |
| O=C(O)c1ccccc1Nc1cccc(C(F)(F)F)c1 [FLUFENAMIC ACID] | > 10 µM | > 30 µM | > 10 µM | > 30 µM | > 30 µM | > 10 µM | > 10 µM | > 10 µM | 4.6 µM | > 30 µM | > 30 µM | > 30 µM | > 30 µM |
| CCCCCCOC(=O)CCC(=O)CN [HEXAMINOLEVULINATE] | > 30 µM | > 30 µM | > 30 µM | > 30 µM | > 30 µM | > 30 µM | > 30 µM | > 30 µM | 24 µM | > 30 µM | > 30 µM | > 30 µM | > 30 µM |
| COC1=C(OC)C(=O)C(CCCCCCCCCCO)=C(C)C1=O [IDEBENONE] | > 10 µM | 10.9 µM | > 10 µM | > 30 µM | > 30 µM | > 30 µM | > 10 µM | > 10 µM | > 10 µM | > 30 µM | 21.9 µM | > 10 µM | > 30 µM |
| Nc1nc2c(c(=O)[nH]1)N(C=O)C(CNc1ccc(C(=O)N[C@@H](CCC(=O)O)C(=O)O)cc1)CN2 (some centres not stated) [LEUCOVORIN] | > 30 µM | > 30 µM | > 30 µM | > 30 µM | > 30 µM | > 30 µM | > 30 µM | > 30 µM | > 30 µM | > 30 µM | > 30 µM | > 30 µM | > 30 µM |
